This passage reports IC50 results from patent US12365655B2, “Compounds” (CTXT PTY LTD, priority 2018, dated 2025).

Experiment [1] has as its target MOZ-KAT6A (Homo sapiens, UniProt Q92794, A567V). As to the kind of experiment: Acetyltransferase biochemical assay (AlphaScreen), KAT6A. (In general: In Alpha technology, singlet oxygen from a donor bead excites a nearby acceptor bead.)
For experiment [2], the target named is TIP60-KAT5 (Homo sapiens, UniProt Q92993). Description: Acetyltransferase biochemical assay (AlphaScreen), KAT5.
Experiment [3] concerns the target HBO-KAT7 (Homo sapiens, UniProt O95251). As to the kind of experiment: Acetyltransferase biochemical assay (AlphaScreen), KAT7.

Chain of TIP60-KAT5 (Q92993 with tags, fused parts or gaps isoform Q92993-2): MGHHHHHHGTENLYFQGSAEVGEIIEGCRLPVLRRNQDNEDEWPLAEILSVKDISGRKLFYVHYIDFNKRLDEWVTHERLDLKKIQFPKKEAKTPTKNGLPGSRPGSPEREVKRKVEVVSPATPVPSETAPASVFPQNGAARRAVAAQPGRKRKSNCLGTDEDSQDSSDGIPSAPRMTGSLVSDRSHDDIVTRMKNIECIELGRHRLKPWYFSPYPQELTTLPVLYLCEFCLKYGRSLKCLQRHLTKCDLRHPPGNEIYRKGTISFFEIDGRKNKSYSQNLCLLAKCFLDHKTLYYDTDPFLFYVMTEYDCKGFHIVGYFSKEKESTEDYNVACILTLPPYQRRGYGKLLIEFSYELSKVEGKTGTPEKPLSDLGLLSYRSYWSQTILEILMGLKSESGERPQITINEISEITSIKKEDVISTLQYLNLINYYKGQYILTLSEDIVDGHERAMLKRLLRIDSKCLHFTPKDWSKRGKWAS
Chain of MOZ-KAT6A (Q92794 with tags, fused parts or gaps A567V): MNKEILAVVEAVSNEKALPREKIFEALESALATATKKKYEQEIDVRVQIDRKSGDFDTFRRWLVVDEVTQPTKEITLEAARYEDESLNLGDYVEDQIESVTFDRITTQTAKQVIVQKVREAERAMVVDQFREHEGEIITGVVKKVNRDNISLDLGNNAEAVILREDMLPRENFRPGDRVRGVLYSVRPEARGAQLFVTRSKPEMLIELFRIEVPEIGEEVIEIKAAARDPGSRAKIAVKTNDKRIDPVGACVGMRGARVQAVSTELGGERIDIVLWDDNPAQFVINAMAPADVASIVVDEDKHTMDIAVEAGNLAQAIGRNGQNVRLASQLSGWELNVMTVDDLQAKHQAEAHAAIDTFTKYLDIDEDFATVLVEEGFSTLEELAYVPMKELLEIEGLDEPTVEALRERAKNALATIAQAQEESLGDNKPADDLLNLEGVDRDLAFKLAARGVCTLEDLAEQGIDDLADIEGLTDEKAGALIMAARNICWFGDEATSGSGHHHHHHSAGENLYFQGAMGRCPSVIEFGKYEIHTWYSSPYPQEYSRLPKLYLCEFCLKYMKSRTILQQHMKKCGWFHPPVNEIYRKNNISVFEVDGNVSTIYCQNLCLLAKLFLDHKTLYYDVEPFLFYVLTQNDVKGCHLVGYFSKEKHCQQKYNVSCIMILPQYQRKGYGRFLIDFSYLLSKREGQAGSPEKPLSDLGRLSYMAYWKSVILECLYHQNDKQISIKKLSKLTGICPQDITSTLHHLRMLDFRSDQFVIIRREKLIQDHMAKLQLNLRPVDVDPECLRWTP
Chain of HBO-KAT7 (O95251 with tags, fused parts or gaps): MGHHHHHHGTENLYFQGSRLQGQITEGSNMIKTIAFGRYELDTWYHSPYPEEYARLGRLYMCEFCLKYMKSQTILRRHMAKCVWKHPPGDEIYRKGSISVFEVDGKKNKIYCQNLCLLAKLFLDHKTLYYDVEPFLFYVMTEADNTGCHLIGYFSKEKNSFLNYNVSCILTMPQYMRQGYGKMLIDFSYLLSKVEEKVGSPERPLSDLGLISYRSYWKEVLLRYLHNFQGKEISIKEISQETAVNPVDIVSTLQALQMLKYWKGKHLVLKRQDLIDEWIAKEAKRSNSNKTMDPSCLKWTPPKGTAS

As a reminder, the IC50 is the midpoint of a concentration-inhibition curve. Low readings indicate greater potency in that assay, high ones weaker potency in that assay. On to `O=S(=O)(Nc1noc2cccc(Cl)c12)c1ccc2c(c1)CCCC2` [Example 42, N-(4-chlorobenzo [d]isoxazol-3-yl)-5,6,7,8-tetrahydronaphthalene-2-sulfonamide], for which the IC50 turned out to be 5.95 µM in experiment [1], 11.6 µM in experiment [2] and 8.38 µM in experiment [3].

`CCc1ccc(OC)c(S(=O)(=O)Nc2noc3cc(-n4cccn4)ccc23)c1` [Example 131]: the IC50 in experiment [1] was 3.11 µM; in experiment [2], 69.7 µM; in experiment [3], 23.8 µM.

In the case of `CCc1ccc(OC)c(S(=O)(=O)Nc2noc3cccc(C4CC4)c23)c1` [Example 200], the IC50 was determined as 0.364 µM in experiment [1], 4.73 µM in experiment [2] and 0.678 µM in experiment [3].

Regarding `O=S(=O)(Nc1noc2cccc(Cl)c12)c1ccc2c(c1)OCCCO2` [Example 14, N-(4-chlorobenzo [d]isoxazol-3-yl)-3,4-dihydro-2H-benzo[b][1,4]dioxepine-7-sulfonamide], the half-maximal inhibitory concentration (IC50) in experiment [1] was 45 µM; in experiment [2] it was above 125 µM; in experiment [3] it was 15.2 µM.

`COc1cccc(OC)c1S(=O)(=O)Nc1noc2cc(COCC(F)(F)F)cc(OC)c12` [Example 240, 2,6-Dimethoxy-N-(4-methoxy-6-((2,2,2-trifluoroethoxy)methyl)benzo[d]isoxazol-3-yl)benzenesulfonamide]: the IC50 in experiment [1] was 1.83 µM; in experiment [2], 122 µM; in experiment [3] it was 10.2 µM.

In the case of `O=S(=O)(Nc1noc2cccc(Cl)c12)c1ccc2nc(O)oc2c1` [Example 8, N-(4-chlorobenzo [d]isoxazol-3-yl)-2-hydroxybenzo[d]oxazole-6-sulfonamide], the IC50 in experiment [1] is 113 µM; in experiment [2] it was above 125 µM; in experiment [3], above 125 µM.

Consider `COc1ccc2cccnc2c1S(=O)(=O)Nc1noc2cccc(OC)c12` [Example 98, 7-Methoxy-N-(4-methoxybenzo[d]isoxazol-3-yl)quinoline-8-sulfonamide], for which the IC50 in experiment [1] amounted to 5.6 µM; in experiment [2] it was 31.3 µM; in experiment [3], 3.41 µM.

In the case of `COc1cc(C#N)cc(-c2cc(OC)c3c(NS(=O)(=O)c4c(OC)cccc4OC)noc3c2)c1` [Example 251], the IC50 was 1.16 µM in experiment [1], 47 µM in experiment [2] and 0.473 µM in experiment [3].

For `CCc1ccc(OC)c(S(=O)(=O)Nc2noc3cc(CC)ccc23)c1` [Example 194], the IC50 is 1.51 µM in experiment [1], 37.8 µM in experiment [2] and 6.87 µM in experiment [3].

Regarding `COc1cccc2onc(NS(=O)(=O)c3cccc4cccnc34)c12` [Example 83, N-(4-methoxybenzo[d]isoxazol-3-yl)quinoline-8-sulfonamide], the IC50 in experiment [1] worked out at 13.6 µM; in experiment [2], 17.9 µM; in experiment [3] it was 3.79 µM.

Take `CCc1ccc(OC)c(S(=O)(=O)Nc2noc3c(Br)cccc23)c1` [Example 137]: the figures for the IC50 in experiment [1], in experiment [2] and in experiment [3] were 8.58 µM, 14.2 µM and 6.56 µM, respectively.

As to `CCc1ccc(OC)c(S(=O)(=O)Nc2noc3ccc(Br)cc23)c1` [Example 135], the concentration for half-maximal inhibition (IC50) worked out at 0.563 µM in experiment [1], 4.79 µM in experiment [2] and 1.43 µM in experiment [3].

As to `CCc1ccc(OC)c(S(=O)(=O)Nc2noc3ccc(CNC(C)=O)cc23)c1` [Example 228, N-((3-((5-Ethyl-2-methoxyphenyl)sulfonamido)benzo[d]isoxazol-5-yl)methyl)acetamide], the IC50 in experiment [1] was 75.2 µM; in experiment [2] it was 124 µM; in experiment [3] it was above 125 µM.

Consider `O=S(=O)(Nc1noc2ccccc12)c1ccc(Cl)c(Cl)c1` [Example 61, N-(benzo[d]isoxazol-3-yl)-3,4-dichlorobenzene-sulfonamide], for which the IC50 in experiment [1] was 51.9 µM; in experiment [2], 85.4 µM; in experiment [3], above 125 µM.

Consider `COCc1cc(OC)c2c(NS(=O)(=O)c3c(OC)cccc3OC)noc2c1I` [Example 160], for which the IC50 in experiment [1] was 1.05 µM; in experiment [2], 46.2 µM; in experiment [3], 1.58 µM.

Take `CCc1ccc(OC)c(S(=O)(=O)Nc2noc3cccc(C)c23)c1` [Example 198, 5-Ethyl-2-methoxy-N-(4-methylbenzo[d]isoxazol-3-yl)benzenesulfonamide]: the results for the IC50 in experiment [1], in experiment [2] and in experiment [3] were 2.82 µM, 73.7 µM and 6.95 µM, respectively.

`COc1ccc(C)cc1S(=O)(=O)Nc1noc2ccccc12` [Example 47, N-(benzo[d]isoxazol-3-yl)-2-methoxy-5-methyl benzene sulfonamide]: the IC50 is 12.9 µM in experiment [1], 123 µM in experiment [2] and 29.4 µM in experiment [3].

Consider `CC(C)c1ccc(S(=O)(=O)Nc2noc3cccc(Cl)c23)cc1` [Example 22, N-(4-chlorobenzo [d]isoxazol-3-yl)-4-isopropylbenzene sulfonamide], for which the figures for the IC50 in experiment [1], in experiment [2] and in experiment [3] were 5.21 µM, 38.9 µM and 6.3 µM, respectively.

Take `CCc1ccc(OC)c(S(=O)(=O)Nc2noc3c(C(=O)NC)cccc23)c1` [Example 184, 3-(5-Ethyl-2-methoxyphenylsulfonamido)-N-methylbenzo[d]isoxazole-7-carboxamide]: the IC50 is above 125 µM in experiment [1], above 125 µM in experiment [2] and 31 µM in experiment [3].

Turning to `COc1ccccc1S(=O)(=O)Nc1noc2cc(Br)ccc12` [Example 157], the figures for the half-inhibitory concentration (IC50) in experiment [1], in experiment [2] and in experiment [3] were 23 µM, above 125 µM and 15.5 µM, respectively.

On to `CCc1ccc(OC)c(S(=O)(=O)Nc2noc3ccc(C)c(Cl)c23)c1` [Example 153], for which the figures for the IC50 in experiment [1], in experiment [2] and in experiment [3] were 0.437 µM, 4.05 µM and 0.507 µM, respectively.

For `COC(=O)c1ccccc1S(=O)(=O)Nc1noc2cccc(Cl)c12` [Example 12, methyl 2-(N-(4-chlorobenzo[d]isoxazol-3-yl)sulfamoyl)benzoate], the IC50 in experiment [1] was above 125 µM; in experiment [2] it was above 125 µM; in experiment [3], 49.9 µM.

`COc1cccc2onc(NS(=O)(=O)c3ccc4c(c3)CCCC4)c12` [Example 84, N-(4-methoxybenzo[d]isoxazol-3-yl)-5,6,7,8-tetrahydro-naphthalene-2-sulfonamide]: the IC50 in experiment [1] was 18.7 µM; in experiment [2] it was 50.5 µM; in experiment [3], 20 µM.

For `O=S(=O)(Nc1noc2cccc(Cl)c12)c1cccc2ccccc12` [Example 124, N-(4-Chlorobenzo[d]isoxazol-3-yl)naphthalene-1-sulfonamide], the IC50 in experiment [1] is 11 µM; in experiment [2] it was 27.9 µM; in experiment [3] it was 13 µM.

For the compound `O=S(=O)(Nc1noc2ccccc12)c1cccc(-c2ccccc2)c1` [Example 70, N-(benzo[d]isoxazol-3-yl)-[1,1-biphenyl]-3-sulfonamide], the concentration for half-maximal inhibition (IC50) in experiment [1] worked out at 31.3 µM; in experiment [2] it was 36.8 µM; in experiment [3] it was 32 µM.

For `CCc1ccc(OC)c(S(=O)(=O)Nc2noc3cc(-c4cncnc4)ccc23)c1` [Example 197, 5-Ethyl-2-methoxy-N-(6-(pyrimidin-5-yl)benzo[d]isoxazol-3-yl)benzenesulfonamide], the concentration for half-maximal inhibition (IC50) in experiment [1] is 21 µM; in experiment [2], above 125 µM; in experiment [3], 45.7 µM.

Take `COc1cc2c(cc1S(=O)(=O)Nc1noc3ccc(Br)cc13)CCCC2` [Example 113, N-(5-bromobenzo[d]isoxazol-3-yl)-3-methoxy-5,6,7,8-tetrahydronaphthalene-2-sulfonamide]: the IC50 in experiment [1] stood at 0.775 µM; in experiment [2], 4.84 µM; in experiment [3], 0.914 µM.

Turning to `CCc1ccc(OC)c(S(=O)(=O)Nc2noc3ccccc23)c1` [Example 63, N-(benzo[d]isoxazol-3-yl)-5-ethyl-2-methoxy benzene-sulfonamide], the IC50 in experiment [1] is 2.56 µM; in experiment [2], above 125 µM; in experiment [3], 60.1 µM.

Consider `COc1cccc2onc(NS(=O)(=O)c3cccc4c(C)ccnc34)c12` [Example 79, N-(4-methoxybenzo[d]isoxazol-3-yl)-4-methyl quinoline-8-sulfonamide], for which the IC50 in experiment [1] worked out at 13.9 µM; in experiment [2] it was 17.5 µM; in experiment [3], 4.06 µM.

Take `O=S(=O)(Nc1noc2cccc(Cl)c12)c1ccccc1OC(F)F` [Example 38, N-(4-chlorobenzo [d]isoxazol-3-yl)-2-(difluoromethoxy) benzenesulfonamide]: the IC50 in experiment [1] came out at 27.5 µM; in experiment [2], 80.1 µM; in experiment [3] it was 6.7 µM.

In the case of `O=S(=O)(Nc1noc2cccc(Cl)c12)c1ccc(OCc2ccccc2)cc1` [Example 9, 4-(benzyloxy)-N-(4-chlorobenzo[d]isoxazol-3-yl)benzenesulfonamide], the IC50 stood at 26.8 µM in experiment [1], 41 µM in experiment [2] and 8.42 µM in experiment [3].

For the compound `COc1cccc(OC)c1S(=O)(=O)Nc1noc2cc(-c3ccccn3)c(C)cc12` [Example 241, 2,6-Dimethoxy-N-(5-methyl-6-(pyridin-2-yl)benzo[d]isoxazol-3-yl)benzenesulfonamide], the IC50 in experiment [1] was 0.157 µM; in experiment [2], 26.3 µM; in experiment [3], 2.51 µM.

Consider `O=S(=O)(Nc1noc2cccc(Cl)c12)c1cccc2nonc12` [Example 16, N-(4-chlorobenzo [d]isoxazol-3-yl)benzo[c][1,2,5]oxadiazole-4-sulfonamide], for which the results for the IC50 in experiment [1], in experiment [2] and in experiment [3] were 15.1 µM, 30.2 µM and 9.63 µM, respectively.

Take `O=S(=O)(Nc1noc2cccc(Cl)c12)c1ccc2c(c1)CCC2` [Example 44, N-(4-chlorobenzo [d]isoxazol-3-yl)-2,3-dihydro-1H-indene-5-sulfonamide]: the results for the IC50 in experiment [1], in experiment [2] and in experiment [3] were 10.6 µM, 60.2 µM and 10.8 µM, respectively.

Take `CCc1ccc(OC)c(S(=O)(=O)Nc2noc3ccc(C(N)=O)cc23)c1` [Example 232, 3-((5-Ethyl-2-methoxyphenyl)sulfonamido)benzo[d]isoxazole-5-carboxamide]: the half-inhibitory concentration (IC50) is 46.5 µM in experiment [1], above 125 µM in experiment [2] and above 125 µM in experiment [3].
